# Reference: PMC7567642, “A Fully Integrated Assay Panel for Early Drug Metabolism and Pharmacokinetics Profiling” (Assay and Drug Development Technologies, 2020)
# Like-named read-outs stand apart in the source and are kept apart here.
# Legend:
# [1] = Automated shake-flask logD7.4 assay (1-octanol/phosphate buffer pH 7.4); format: physicochemical
# Protocol: The assay starts with transfer of individual compound solutions into pools of 10 compounds, alongside two pool QCs, using a Hamilton STARplus liquid handling workstation. […] This step combines 4 μL each of 10 mM compound solutions to a total of 48 μL in an intermediate plate (pool QCs are at 5 mM each). These and subsequent transfers as outlined below involve fresh pipetting tips to eliminate risks of cross-contamination.
# The next assay step involves transfer of 500 μL octanol from a tray to an empty deep well plate, to which 10 μL of each pool is subsequently transferred and thoroughly mixed by repetitive aspiration and dispensing. An octanol-saturated phosphate buffer at pH 7.4 is then added (500 μL) followed by sealing of the content with a PP-based lid. Vigorous shaking of the content is achieved through vortexing for 30 s and equilibration of compound between the two phases is further established through a 3 h incubation on a plate shaker.
# Following equilibration, the deep well plate is centrifuged to ensure separation between phases and the plate is next moved back to the Hamilton platform for sampling of 5 μL from the octanol phase. The sample is placed in a first dilution plate together with 495 μL of an AcN:H2O mix (1:2) containing FA (0.1%) and verapamil as internal standard (IS). The acidified and IS containing AcN solution, which is common for the logD7.4 and Sol assays, is referred to as the IS solution. The content is thoroughly mixed and next serially diluted to four additional plates with 10-fold dilutions to maximize the ability to detect weakly concentrated solutions and afford investigations of linearity in response.
# After sampling, the remaining octanol is removed from the deep well plate through careful pipetting, followed by sampling from the aqueous buffer. […]
# The plates are next brought to the MS instrumentation (Xevo TQS; Waters) and read out using the established UPLC-MS/MS methods. […]
# [2] = parameters: method as in PMID 19429424; details: published dried DMSO assays; cited from earlier work
# [3] = QC control, literature value; cited from earlier work
# [4] = Dried DMSO solubility assay (Sol), phosphate buffer pH 7.4; format: physicochemical; details: ATM inhibitor project
# Protocol: Unlike the logD7.4 assay compounds are not pooled, but instead 50 μL of individual DMSO stock solutions are transferred to glass vials kept in a 3D printed rack that facilitates subsequent liquid transfers using a 96-well pipetting head on the Hamilton STARplus platform. There is no pool QC in the Sol workflow, instead this is replaced with the inclusion of three QCs, the positioning of which is randomized for each week. Solvent is evaporated and the dried compounds are resolubilized in 500 μL of aqueous phosphate buffer at pH 7.4.
# Individual Stir Stixs are added to each glass vial using a drop dispenser from V&P Scientific, Inc., a rubber mat is used to seal the vials, and samples are then equilibrated under mixing for 20–24 h. […]
# The process of centrifugation and transfer is repeated to remove any remaining debris, except that the 20 μL supernatant transfer combines sampling and pooling of 10 samples to a pool plate with 200 μL of an IS solution (same as in logD7.4). […] Finally, sample and standard plates are sealed and read out, analyzed, and qualified as described for the logD7.4 assay. Calculated solubility values (in μM) are exported into our internal database ensuring global availability to users.
# [5] = biological target: Ataxia Telangiectasia Mutated (ATM) kinase (Homo sapiens, UniProt Q13315); details: ATM inhibitor project
# Sequence of Ataxia Telangiectasia Mutated (ATM) kinase (Q13315 whole entry, species assumed, change not shown): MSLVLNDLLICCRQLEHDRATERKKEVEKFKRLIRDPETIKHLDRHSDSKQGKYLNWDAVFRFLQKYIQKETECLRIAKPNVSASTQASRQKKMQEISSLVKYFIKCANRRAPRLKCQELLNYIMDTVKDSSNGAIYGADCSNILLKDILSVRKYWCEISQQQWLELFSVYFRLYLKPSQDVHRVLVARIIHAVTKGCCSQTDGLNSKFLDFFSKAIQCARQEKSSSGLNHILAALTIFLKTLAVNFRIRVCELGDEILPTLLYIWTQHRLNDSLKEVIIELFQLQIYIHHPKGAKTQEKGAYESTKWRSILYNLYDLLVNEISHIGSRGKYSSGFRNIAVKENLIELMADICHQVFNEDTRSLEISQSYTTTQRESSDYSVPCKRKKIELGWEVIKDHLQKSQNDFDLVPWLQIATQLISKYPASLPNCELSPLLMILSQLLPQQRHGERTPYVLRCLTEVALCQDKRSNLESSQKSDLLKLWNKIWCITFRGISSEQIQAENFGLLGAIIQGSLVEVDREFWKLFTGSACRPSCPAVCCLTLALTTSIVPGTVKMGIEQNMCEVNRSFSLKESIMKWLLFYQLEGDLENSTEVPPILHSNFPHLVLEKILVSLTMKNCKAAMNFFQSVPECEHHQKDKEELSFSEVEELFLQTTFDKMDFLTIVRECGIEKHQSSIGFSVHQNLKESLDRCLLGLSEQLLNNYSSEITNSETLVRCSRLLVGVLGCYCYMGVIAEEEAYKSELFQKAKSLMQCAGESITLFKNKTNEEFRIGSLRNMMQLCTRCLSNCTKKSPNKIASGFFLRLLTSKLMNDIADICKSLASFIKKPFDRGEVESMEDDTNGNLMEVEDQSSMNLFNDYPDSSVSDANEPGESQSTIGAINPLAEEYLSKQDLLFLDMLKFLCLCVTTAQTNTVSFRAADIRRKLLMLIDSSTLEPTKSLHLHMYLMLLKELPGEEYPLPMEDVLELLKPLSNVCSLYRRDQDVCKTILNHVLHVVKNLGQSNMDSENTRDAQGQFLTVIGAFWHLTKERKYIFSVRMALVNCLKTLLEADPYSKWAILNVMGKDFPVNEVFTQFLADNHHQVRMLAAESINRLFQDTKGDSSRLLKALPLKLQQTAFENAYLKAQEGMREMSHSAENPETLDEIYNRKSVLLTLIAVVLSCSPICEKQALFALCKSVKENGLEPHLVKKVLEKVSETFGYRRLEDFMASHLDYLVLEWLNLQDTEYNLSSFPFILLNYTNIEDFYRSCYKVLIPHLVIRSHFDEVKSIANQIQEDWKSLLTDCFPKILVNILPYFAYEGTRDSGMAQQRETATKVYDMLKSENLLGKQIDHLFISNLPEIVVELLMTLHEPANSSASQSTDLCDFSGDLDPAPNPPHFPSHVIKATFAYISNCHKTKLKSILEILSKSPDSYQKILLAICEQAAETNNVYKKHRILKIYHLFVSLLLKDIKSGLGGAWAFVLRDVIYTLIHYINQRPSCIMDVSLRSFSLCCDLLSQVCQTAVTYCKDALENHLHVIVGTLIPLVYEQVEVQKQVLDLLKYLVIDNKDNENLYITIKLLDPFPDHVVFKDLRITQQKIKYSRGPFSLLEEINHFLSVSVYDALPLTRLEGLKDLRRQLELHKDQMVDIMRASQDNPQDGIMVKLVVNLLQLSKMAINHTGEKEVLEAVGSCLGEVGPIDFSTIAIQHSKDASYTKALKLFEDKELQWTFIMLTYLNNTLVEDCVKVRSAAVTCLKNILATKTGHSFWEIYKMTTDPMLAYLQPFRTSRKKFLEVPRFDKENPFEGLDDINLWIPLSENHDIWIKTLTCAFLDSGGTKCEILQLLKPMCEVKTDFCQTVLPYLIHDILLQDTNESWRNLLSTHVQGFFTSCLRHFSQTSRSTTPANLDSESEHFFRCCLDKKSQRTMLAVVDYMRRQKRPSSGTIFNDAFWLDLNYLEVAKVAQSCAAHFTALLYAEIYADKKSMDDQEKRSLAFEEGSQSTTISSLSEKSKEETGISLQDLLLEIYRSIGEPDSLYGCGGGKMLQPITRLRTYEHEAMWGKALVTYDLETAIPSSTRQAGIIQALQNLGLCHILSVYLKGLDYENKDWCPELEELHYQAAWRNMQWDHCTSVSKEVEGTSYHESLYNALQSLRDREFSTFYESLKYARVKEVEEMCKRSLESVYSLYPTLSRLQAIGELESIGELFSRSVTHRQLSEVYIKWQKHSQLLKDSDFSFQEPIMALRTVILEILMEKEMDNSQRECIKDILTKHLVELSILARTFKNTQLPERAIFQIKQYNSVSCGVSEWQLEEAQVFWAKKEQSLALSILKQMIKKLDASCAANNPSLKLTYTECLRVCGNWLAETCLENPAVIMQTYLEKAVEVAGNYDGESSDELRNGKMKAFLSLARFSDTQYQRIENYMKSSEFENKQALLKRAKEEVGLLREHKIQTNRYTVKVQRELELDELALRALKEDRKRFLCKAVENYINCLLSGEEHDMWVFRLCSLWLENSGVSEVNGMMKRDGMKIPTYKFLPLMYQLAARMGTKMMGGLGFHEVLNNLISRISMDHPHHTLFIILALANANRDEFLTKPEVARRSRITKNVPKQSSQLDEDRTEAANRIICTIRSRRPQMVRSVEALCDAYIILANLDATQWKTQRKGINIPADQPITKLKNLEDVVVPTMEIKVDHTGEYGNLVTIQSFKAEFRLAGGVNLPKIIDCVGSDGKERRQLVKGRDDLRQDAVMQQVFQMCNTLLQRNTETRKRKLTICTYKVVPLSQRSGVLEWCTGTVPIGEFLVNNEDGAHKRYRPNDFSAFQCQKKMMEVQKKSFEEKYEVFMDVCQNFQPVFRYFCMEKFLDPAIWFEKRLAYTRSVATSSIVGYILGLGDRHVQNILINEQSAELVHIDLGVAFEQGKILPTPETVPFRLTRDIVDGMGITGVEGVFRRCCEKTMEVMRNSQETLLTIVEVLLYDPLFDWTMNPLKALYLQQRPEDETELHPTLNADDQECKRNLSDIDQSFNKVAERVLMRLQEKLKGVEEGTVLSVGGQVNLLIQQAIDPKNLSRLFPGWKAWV
# human plasma = details: cited from earlier work
structure (smiles),measurement,setting,value
CC(C)n1c(=O)n(C)c2cnc3cc(F)c(-c4ccc(OCCCN5CCCCC5)nc4)cc3c21,logD at 3 h,"[1]; pH 7.4, ATM inhibitor project, DMPK Wave 1 panel",2.7
"COc1ccc(CCN2CCC(Nc3nc4ccccc4n3Cc3ccc(F)cc3)CC2)cc1 [astemizole, Astemizole]",solubility,[2],2.9 µM
"CN(C)CCCN1c2ccccc2Sc2ccc(Cl)cc21 [chlorpromazine, Chlorpromazine]",solubility,[2],450 µM
"CN(C)CCC=C1c2ccccc2C=Cc2ccccc21 [cyclobenzaprine, Cyclobenzaprine]",logD7.4,[3],2.8
CCC(CC)CNc1c(C(N)=O)cnc2ccc(C#N)cc12 [initial starting point],solubility (in words),[4],low μM solubility
same,logD7.4,"[1]; ATM inhibitor project, DMPK Wave 1 panel",3.5
same,potency on the target protein (in words),[5],μM potency
"COCCc1ccc(OCC(O)CNC(C)C)cc1 (centres unmarked) [metoprolol, Metoprolol]",fu (fraction unbound),human plasma,~85%
"COC(=O)C1=C(C)NC(C)=C(C(=O)OCCN(C)Cc2ccccc2)C1c1cccc([N+](=O)[O-])c1 (centres unmarked) [nicardipine, Nicardipine]",logD at 3 h,"[1]; 1-octanol/phosphate buffer pH 7.4, pH 7.4, QC control, in-house data",4.5
"O=C1NC(=O)C(c2ccccc2)(c2ccccc2)N1 [phenytoin, Phenytoin]",solubility,[2],86 µM
"CC(=O)CC(c1ccccc1)c1c(O)c2ccccc2oc1=O (centres unmarked) [warfarin, Warfarin]",fu (fraction unbound),human plasma,~1%
